Values quoted from earlier work as cited in patent publication US11376246B2, “Inhibiting mutant IDH-1” (FORMA Therapeutics, Inc., priority 2018, dated 2022).

Conditions: Literature reported data; cited from earlier work

In the case of Cc1cc([C@H](C)Nc2nccc(N3C(=O)OC[C@@H]3C(C)C)n2)ncc1-c1ccnc(C(F)(F)F)c1 [IDH305], the “BBB+” value is given as “Yes”.
For Cc1cc(-c2cnc([C@H](C)Nc3nccc(N4C(=O)OC[C@@H]4C(C)C)n3)nc2)ccc1F [IDH889], the “BBB+” value is given as “Yes”.
